Experimental data: US7037939B2, “Compound and derivative of gabapentin” (Industrial Technology Research Institue, priority 2002, dated 2006)

Tests used:
[1] = Oral drug absorption test in rats: gabapentin concentration in blood/serum by LC/MS/MS; assay type: in vivo, rat; conditions: 300 mg/kg, ratio of AUC to Gabapentin HCl
Protocol: Rats (3 male, Winstar rats) are fed with 300 mg/kg dosage of compounds. Plural blood samples are collected at different times (0, 0.5, 1, 2, 3, 8, 12, 24 hrs). The blood samples are centrifuged, and the concentration of gabapentin in the serum are analyzed with LC/MS/MS (MRM method, limitation of instruments 0.005 μg/mL).
After reducing the dosage, compounds of gabapentin prodrugs were selected for further pharmacodynamic analysis. The rats are fed with 50 mg/kg dosage of gabapentin equivalency individually.

[2] = test system: Caco-2 cell; test: Caco-2 monolayer cell transmission rate (in vitro intestinal absorption model); assay type: in vitro ADME, human
Excerpt: The common use of the activity selection model for the in vitro intestinal absorption comprises: (1) Carcinoms (Caco-2); (2) Using Chamber; (3) Everted Gut Sac. Basically, there is no difference for those three drug-activity-selection models when they are used for evaluating the activity selection. However, in terms of the cell source from human, a cell line is predominant. Moreover, with the cellular metabolism being similar to human intestines, Caco-2 becomes an excellent tool in the study of intestine absorption. Therefore, in the comparison of the in vitro transmission rate between gabapentin and gabapentin derivatives, the Caco-2 system is still the favorable model.
The research for studying gabapentin and the derivatives thereof in the present invention includes: Caco-2 cell activation, Caco-2 monolayer cell cultivation, resistance value measurement, effect of time to gabapentin transmission rate, and comparison of transmission rate between gabapentin and gabapentin derivatives. In constructing the Caco-2 monolayer, the original cell line is the human colon adenocarcinoma cell (Caco-2), and its data sheet is listed as Table 2.
The Caco-2 cell is activated appropriately, and seeded in the transwell at 37° C. in an amount of about 1×10^5. The aliquot is cultivated in 5% CO2 at 37° C. and replaced with a fresh medium every 3 to 4 days, and then the monolayer cell is obtained by the 21 days cultivation. The integrity of the Caco-2 cell is further characterized by tissue section and resistance value measurement.
HPLC Analysis: Intersil ODS-3V 250*4.6 mm column, Solvent: MeOH/H2O=10:90 to 70:30 with 0.1% of NH4OAc, Flow rate=1.0 ml/min, ELSD: Evaporative Light Scattering Detector. Every derivative has been repeated for 3 times in analysis, 4 hr later, the sample is analyzed for the transmission rate and then averaged to account its transmission fold.

[3] = Caco-2 monolayer, 4 h, mean of 3 repeats, HPLC-ELSD
[4] = ratio of Caco-2 transmission rate to GBP.HCl, 4 h

| Caco-2 Cell Mean Total Transmission rate 4 h (%) [2, 3] | gbp-prodrug/gbp Transmission Fold [2, 4] | Compound | AUC value relative to Gabapentin HCl [1] | Caco-2 Cell Mean Total Transmission rate 4 h (%) ([2]; human, Caco-2, 4 h) | gbp-prodrug/gbp Transmission Fold ([2]; human, Caco-2, 4 h) |
| --- | --- | --- | --- | --- | --- |
|  |  | CCOC(=O)CC1(CNC(=O)CC2(CN)CCCCC2)CCCCC1 [Embodiment 2, (1-{[2-(1-Aminomethyl-cyclohexyl)-acetylamino]-methyl}-cyclohexyl)-acetic acid ethyl ester] | 14.9 times | 10.25% | 9.3 Fold |
|  |  | CCOC(=O)CC1(CNC(=O)C(N)c2ccccc2)CCCCC1 (stereo not drawn) [Embodiment 30, {1-[(2-Amino-2-phenyl-acetylamino)-methyl]-cyclohexyl}-acetic acid ethyl ester] |  | 11.87% | 10.8 Fold |
| 9.97% | 9.1 Fold | CCOC(=O)CC1(CNC(=O)C(N)c2cc3ccccc3[nH]2)CCCCC1 (stereo not drawn) [Embodiment 33, (1-{[2-Amino-2-(1H-indol-2-yl)-acetylamino]-methyl}-cyclohexyl)-acetic acid ethyl ester] |  |  |  |
|  |  | CCOC(=O)CC1(CNC(=O)C2CCNCC2)CCCCC1 [Embodiment 7, (1-{[(Piperidine-4-carbonyl)-amino]-methyl}-cyclohexyl)-acetic acid ethyl ester] |  | 1% | 0.9 Fold |
|  |  | CCOC(=O)CC1(CNC(=O)c2ccccc2CN)CCCCC1 [Embodiment 18, {1-[(2-Aminomethyl-benzoylamino)-methyl]-cyclohexyl}-acetic acid ethyl ester] |  | 2.13% | 1.9 Fold |
| 9.00% | 8.2 Fold | CCOC(=O)CC1(CNC(=O)CCNC(=O)c2cccnc2)CCCCC1 [Embodiment 36, [1-({3-[(Pyridine-3-carbonyl)-amino]-propionylamino}-methyl)-cyclohexyl]-acetic acid ethyl ester] |  |  |  |
|  |  | CCOC(=O)CC1(CNC(=O)C(N)CC(C)C)CCCCC1 (stereo not drawn) [Embodiment 13, {1-[(2-Amino-4-methyl-pentanoylamino)-methyl]-cyclohexyl}-acetic acid ethyl ester] |  | 12.37% | 11.2 Fold |
| 9.26% | 8.4 Fold | CCOC(=O)CC1(CNC(=O)C(Cc2ccccc2)NC(=O)CC2(CN)CCCCC2)CCCCC1 (stereo not drawn) [Embodiment 22, [1-({2-[2-(1-Aminomethyl-cyclohexyl)-acetylamino]-3-phenyl-propionylamino}-methyl)-cyclohexyl]-acetic acid ethyl ester] |  |  |  |

| Compound | Caco-2 Cell Mean Total Transmission rate 4 h (%) [2, 3] | gbp-prodrug/gbp Transmission Fold [2, 4] | AUC value relative to Gabapentin HCl [1] | Caco-2 Cell Mean Total Transmission rate 4 h (%) ([2]; human, Caco-2, 4 h) | gbp-prodrug/gbp Transmission Fold ([2]; human, Caco-2, 4 h) |
| --- | --- | --- | --- | --- | --- |
| CSCCC(NC(=O)OC(C)(C)C)C(=O)NCC1(CC(=O)O)CCCCC1 (stereo not drawn) [Embodiment 5, {1-[(2-tert-Butoxycarbonylamino-4-methylsulfanyl-butyrylamino)-methyl]-cyclohexyl}-acetic acid] | 26% | 23.6 Fold |  |  |  |
| CCOC(=O)CC1(CNC(=O)C(NC(=O)OC(C)(C)C)c2ccc(O)cc2)CCCCC1 (stereo not drawn) [Embodiment 38, (1-{[2-tert-Butoxycarbonylamino-2-(4-hydroxy-phenyl)-acetylamino]-methyl}-cyclohexyl)-acetic acid ethyl ester] | 5.05% | 4.6 Fold |  |  |  |
